From US5712300A, “Hydroxamic acid derivatives useful for the treatment of diseases related to connective tissue degradation” (priority 1997, dated 1998)
pKi: −log10 of the molar value. Structures can show the parent of a compound that is named as a salt.

Legend:
Format in all cases: biochemical
Gelatinase = assay: MMP inhibition by particle concentration fluorescence technique (gelatinase); conditions: pH 7.5; 15 min enzyme preincubation; substrate 1-3 h at room temperature; read-out: MMP Inhibition Constants, Gelatinase Ki
Experimental: (§1) Inhibitory activity is evaluated in one or more of the MMP enzymes (stromelysin, gelatinase, and collagenase) in vitro using a particle concentration fluorescence techniques. An inhibitor binds to MMP enzymes prevents the degradation of a substrate of stromelysin, gelatinase, or collagenase. The substrate is attached with a fluorescein and a biotin. The intact substrate then binds to an avidin-coated particle via the biotin moiety. Once the particle is washed and dried, a fluorescent signal is generated since the fluorescent group is attached to the particle. Without an inhibitor present, the substrate is degraded by MMP enzymes and the fluorescein group is removed, therefore, no fluorescent signal can be detected. Testing compounds are dissolved in DMSO to the desired concentration, then the solutions are diluted to 1:5 with MMP buffer (50 mM Tris-HCl, pH 7.5; 150 mM NaCl; 0.02% NAN3). Serial two-fold dilutions of each compound are prepared. A concentrated, activated enzyme solution is transferred into each plate of the testing compounds, and the mixture is incubated at room temperature for 15 minutes. Thawed MMP substrate is then added into all plates, and the plates are incubate in the dark for 1-3 hours at room temperature. At this point, the substrate mixture is reacted with 0.1% avidin-coated polystyrene particles.

Collagenase = target: T1, Collagenase (Homo sapiens, UniProt P03956); assay: MMP inhibition by particle concentration fluorescence technique (collagenase); conditions: pH 7.5; 15 min enzyme preincubation; substrate 1-3 h at room temperature; read-out: MMP Inhibition Constants, Collagenase Ki
T1 sequence (P03956 100-469): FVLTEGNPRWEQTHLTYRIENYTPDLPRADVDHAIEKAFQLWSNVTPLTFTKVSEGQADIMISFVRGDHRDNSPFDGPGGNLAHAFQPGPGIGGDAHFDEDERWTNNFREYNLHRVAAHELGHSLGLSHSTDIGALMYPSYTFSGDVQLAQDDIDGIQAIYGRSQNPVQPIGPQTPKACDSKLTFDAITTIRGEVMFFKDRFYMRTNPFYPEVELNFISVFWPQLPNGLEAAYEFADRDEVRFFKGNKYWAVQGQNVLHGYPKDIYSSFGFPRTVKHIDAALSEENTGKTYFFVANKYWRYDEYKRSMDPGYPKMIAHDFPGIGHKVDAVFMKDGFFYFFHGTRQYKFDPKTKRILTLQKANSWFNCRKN
Experimental: as §1

Stromelysin = Stromelysin (Homo sapiens, UniProt P08254); assay: MMP inhibition by particle concentration fluorescence technique (stromelysin); conditions: pH 7.5; 15 min enzyme preincubation; substrate 1-3 h at room temperature; read-out: MMP Inhibition Constants, Stromelysin Ki
Chain of Stromelysin (P08254 100-477): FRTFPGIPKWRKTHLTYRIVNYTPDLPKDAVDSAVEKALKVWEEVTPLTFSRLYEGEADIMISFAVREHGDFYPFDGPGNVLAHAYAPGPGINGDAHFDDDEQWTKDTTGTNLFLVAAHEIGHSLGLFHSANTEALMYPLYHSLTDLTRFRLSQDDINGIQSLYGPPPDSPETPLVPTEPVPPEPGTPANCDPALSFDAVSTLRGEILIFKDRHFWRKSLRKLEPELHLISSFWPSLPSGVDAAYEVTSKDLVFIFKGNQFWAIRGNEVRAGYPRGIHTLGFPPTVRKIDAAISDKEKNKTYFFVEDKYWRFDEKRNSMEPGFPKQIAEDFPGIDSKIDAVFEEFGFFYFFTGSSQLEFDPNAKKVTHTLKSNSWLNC
Description: An inhibitor binds to MMP enzymes prevents the degradation of a substrate of stromelysin, gelatinase, or collagenase. The substrate is attached with a fluorescein and a biotin. The intact substrate then binds to an avidin-coated particle via the biotin moiety. Once the particle is washed and dried, a fluorescent signal is generated since the fluorescent group is attached to the particle. Without an inhibitor present, the substrate is degraded by MMP enzymes and the fluorescein group is removed, therefore, no fluorescent signal can be detected. […] Serial two-fold dilutions of each compound are prepared. A concentrated, activated enzyme solution is transferred into each plate of the testing compounds, and the mixture is incubated at room temperature for 15 minutes.

pKi (Gelatinase)	pKi (Collagenase)	pKi (Stromelysin)	Compound
6.56	7.74	6.16	CC(C)C[C@@]1([C@@H](CCNC(=O)c2cccc(F)c2)C(=O)NO)CCN(CCc2ccc(F)cc2)C1=O (relative stereo) [Example 78, α-[2-[(3-Fluorobenzoyl)amino]ethyl]-1-[2-(4-fluorophenyl)ethyl]-N-hydroxy-3-(2-methylpropyl)-2-oxo-3-pyrrolidineacetamide]
8.75	6.47	7.42	CC(C)C[C@@]1([C@@H](CCNC(=O)c2ccc(-c3ccccc3)cc2)C(=O)NO)CCN(CCc2ccccc2)C1=O (relative stereo) [Example 79, α-[2-[(4-Biphenylcarbonyl)amino]ethyl]-N-hydroxy-3-(2-methylpropyl)-2-oxo-1-(2-phenylethyl)-3-pyrrolidineacetamide]
6.06	5.62	6.42	COc1ccc(S(=O)(=O)NCC[C@@H](C(=O)NO)[C@]2(CC(C)C)CCN(CCc3ccccc3)C2=O)cc1 (relative stereo) [Example 82, N-Hydroxy-α-[2-[[(4-methoxyphenyl)sulfonyl]amino]ethyl]-3-(2-methylpropyl)-2-oxo-1-(2-phenylethyl)-3-pyrrolidineacetamide]
6.24	4.77	6.97	CC(C)C[C@@]1([C@@H](CCNS(=O)(=O)c2ccccc2)C(=O)NO)CCN(CCc2ccccc2)C1=O (relative stereo) [Example 83, N-Hydroxy-3-(2-methylpropyl)-2-oxo-1-(2-phenylethyl)-α-[2-[(phenylsulfonyl)amino]ethyl]-3-pyrrolidineacetamide]
7.34	6.19	6.99	CC(C)C[C@@]1([C@@H](CCN2Cc3ccccc3C2=O)C(=O)NO)CCN(CCc2ccccc2)C1=O (relative stereo) [Example 86, 1,3-Dihydro-N-hydroxy-α-[8-(2-methylpropyl)-2-oxo-1-(2-phenylethyl)-3-pyrrolidinyl]-1-oxo-2H-isoindole-2-butanamide]
6.20	7.28	5.75	COc1ccc(S(=O)(=O)NC[C@H](C(=O)NO)[C@]2(CC(C)C)CCN(CCc3ccccc3)C2=O)cc1 (relative stereo) [Example 90, N-Hydroxy-α-[[[(4-methoxyphenyl)sulfonyl]amino]methyl]-3-(2-methylpropyl)-2-oxo-1-(2-phenylethyl)-3-pyrrolidineacetamide]
6.56	6.43	6.51	CC(C)C[C@@]1([C@@H](NS(=O)(=O)c2ccc(F)cc2)C(=O)NO)CCN(CCc2ccccc2)C1=O (relative stereo) [Example 92, α-[[(4-Fluorophenyl)sulfonyl]amino]-N-hydroxy-3-(2-methylpropyl)-2-oxo-1-(2-phenylethyl)-3-pyrrolidineacetamide]
5.96	7.01	5.68	CC(C)C[C@@]1([C@H](NS(=O)(=O)c2ccc(F)cc2)C(=O)NO)CCN(CCc2ccccc2)C1=O (relative stereo) [Example 93, α-[[(4-Fluorophenyl)sulfonyl]amino]-N-hydroxy-3-(2-methylpropyl)-2-oxo-1-(2-phenylethyl)-3-pyrrolidineacetamide]
8.92	7.87	7.80	O=C(NCC[C@@H](C(=O)NO)[C@]1(CCCO)CCN(CCc2ccccc2)C1=O)c1ccc(F)c(F)c1 (relative stereo) [Example 94, α-[2-[(3,4-Difluorobenzoyl)amino]ethyl]-N-hydroxy-3-(3-hydroxypropyl)-2-oxo-1-(2-phenylethyl)-3-pyrrolidineacetamide]
7.89	7.60	6.92	O=C(NCC[C@@H](C(=O)NO)[C@]1(CCO)CCN(CCc2ccccc2)C1=O)c1ccc(F)c(F)c1 (relative stereo) [Example 95, α-[2-[(3,4-Difluorobenzoyl)amino]ethyl]-N-hydroxy-3-(2-hydroxyethyl)-2-oxo-1-(2-phenylethyl)-3-pyrrolidineacetamide]
5.45	5.64	4.57	CC(C)CC1(CC(=O)NO)CCN(CCc2ccccc2)C1=O (stereo not drawn) [Example 1, N-Hydroxy-3-(2-methylpropyl)-2-oxo-1-(2-phenylethyl)-3-pyrrolidineacetamide]
5.48	5.98	4.69	CC(C)C[C@@]1(CC(=O)NO)CCN(CCc2ccccc2)C1=O [Example 2, (3S)-N-Hydroxy-3-(2-methylpropyl)-2-oxo-1-(2-phenylethyl)-3-pyrrolidineacetamide]
4.93	5.37	4.96	CC(C)CC1(C(C)C(=O)NO)CCN(CCc2ccccc2)C1=O (stereo not drawn) [Example 3, N-Hydroxy-α-methyl-3-(2-methylpropyl)-2-oxo-1-(2-phenylethyl)-3-pyrrolidineacetamide]
5.51	6.24	4.78	CNC(=O)CN1CCC(CC(=O)NO)(CC(C)C)C1=O (stereo not drawn) [Example 20, N^3 -Hydroxy-N^1-methyl-3-(2-methylpropyl)-2-oxo-1,3-pyrrolidinediacetamide]
7.31	7.66	5.68	CNC(=O)C(Cc1ccccc1)N1CCC(CC(=O)NO)(CC(C)C)C1=O (stereo not drawn) [Example 21, N^3 -Hydroxy-N^1-methyl-3-(2-methylpropyl)-2-oxo-α^1-(phenylmethyl)-1,3-pyrrolidinediacetamide]
5.81	6.34	5.38	CC(C)CC1(CC(=O)NO)CCN(Cc2ccccc2)C1=O (stereo not drawn) [Example 23, N-Hydroxy-3-(2-methylpropyl)-2-oxo-1-(phenylmethyl)-3-pyrrolidineacetamide]
7.62	7.80	5.98	CNC(=O)[C@H](Cc1ccccc1)N1CC[C@](CC(=O)NO)(CC(C)C)C1=O [Example 30, [S-(R*,R*)]-N^3 -Hydroxy-N^1-methyl-3-(2-methylpropyl)-2-oxo-α^1-(phenylmethyl)-1,3-pyrrolidinediacetamide]
7.71	7.02	6.29	CC(C)C[C@@]1(CC(=O)NO)CCN([C@@H](Cc2ccccc2)C(=O)NCCc2ccccc2)C1=O [Example 31, [S-(R*,R*)]-N^3 -Hydroxy-3-(2-methylpropyl)-2-oxo-N^1-(2-phenethyl)-α^1-(phenylmethyl)-1,3-pyrrolidinediacetamide]
7.30	7.44	6.14	CNC(=O)[C@H](CC(C)C)N1CC[C@](CC(=O)NO)(CC(C)C)C1=O [Example 32, [S-(R*,R*)]-N^3 -Hydroxy-N^1-methyl-α^1,3-bis(2-methylpropyl)-2-oxo-1,3-pyrrolidinediacetamide]
7.51	7.66	5.38	CNC(=O)[C@H](Cc1ccccc1)N1CC[C@@](CCC(C)C)(CC(=O)NO)C1=O [Example 34, [S-(R*,R*)]-N^3 -Hydroxy-N^1-methyl-3-(3-methylbutyl)-2-oxo-α^1-(phenylmethyl)-1,3-pyrrolidinediacetamide]
7.12	8.24	7.00	CC(C)C[C@@]1(CC(=O)NO)CCN([C@@H](Cc2ccccc2)C(=O)Nc2ccccc2)C1=O [Example 39, [S-(R*,R*)]-N^3 -Hydroxy-3-(2-methylpropyl)-2-oxo-N^1-phenyl-α^1-(phenylmethyl)-1,3-pyrrolidinediacetamide]
7.98	7.43	5.70	CC(C)C[C@@]1(CC(=O)NO)CCN([C@@H](Cc2ccccc2)C(=O)NCc2ccccn2)C1=O [Example 40, [S-(R*,R*)]-N^3 -Hydroxy-3-(2-methylpropyl)-2-oxo-α^1-(phenylmethyl)-N^1-(2-pyridinylmethyl)-1,3-pyrrolidinediacetamide]

Compound	pKi (Gelatinase)	pKi (Collagenase)	pKi (Stromelysin)
CC(C)CC1(CC(=O)NO)CNN(CCc2ccccc2)C1=O (stereo not drawn) [Example 38, N-Hydroxyl-4-(2-methylpropyl)-5-oxo-1-(2-phenylethyl)-4-pyrazolidineacetamide monohydrochloride]	4.84	4.88	4.51
